Where two headings read alike, the source gives them in different places. Starred links: 1 amine or outer side, 2 acyl side, 3 side chain; linkers in the order of their positions; H or OH if unused. Non-standard residues stand in square brackets, D forms with d. Primed or numbered codes have the meaning given here. No end group written: not given here. K(Palm) = CCCCCCCCCCCCCCCC(=O)NCCCC[C@H](N[*:1])C(=O)[*:2]; PEG2′ = short PEG2 spacer in the linker
Key:
[1] = Blood ionized calcium in mice after injection; format: in vivo; conditions: single dose 10 nmol/kg i.v.
Text: Data are means±SEM; n=6 mice per group.
In Vivo Testing of the Polypeptides Wild-type, ca. 10-week old male C57BL/6J mice were purchased from the Charles River Laboratories (Wilmington, Massachusetts, USA). The origin and method of breeding of Col1-H223R “Jansen's” transgenic mice is described by Calvi et al. (J. Clin. Invest. 107:277-286, 2001). Mice were maintained in facilities operated by the Center for Comparative Research of the Massachusetts General Hospital, and acclimated in the facilities for seven days prior to being used for study. All experimental procedures were approved by the MGH Institutional Animal Care and Use Committee (IACUC). In each study, animals were assigned randomly to treatment groups. Where possible, power calculations established that the number of animals used per study group was sufficient to detect statistically significant differences in intended primary experimental outcomes (i.e., changes in serum Ca and Pi).

[2] = Pharmacokinetic properties in mice, hPTH(1-34) ELISA of plasma
Description: (§1) Mice were injected IV via the tail vein or subcutaneously with ligands in vehicle (0.05% Tween 80; 10 mM citrate; 150 mM NaCl; pH 5.0) to give the intended final ligand dose (e.g. 50 nmol/kg body weight). At times immediately before (t=0) and after injection, tail vein blood was collected and analyzed for concentrations of administered peptides or blood ionized calcium (Ca^2+) measured with a RAPIDLAB 348 analyzer (SIEMENS Healthcare Diagnostic, United Kingdom).

[3] = Hypophosphatemic effect (total inorganic phosphorus) in mice; format: in vivo; conditions: as compared to PTH(1-34)
Text: Tail vein blood and spot urine were collected just prior to injection (t=0) and at the indicated times after injection.
Peptide doses for FIGS. 4A and 4B were 10 nmol/kg, while peptide doses were 50 nmol/kg for FIGS. 4C and 4D. T-test vs. vehicle: *p<0.05; PTH vs. Palm: +p<0.05. Mice were CD1 females, age 10 weeks. Data are means±SEM, n=6.

[4] = mouse, in vivo, sc
Description: as §1

[5] = target: T1, PTH receptor (Homo sapiens, UniProt Q03431); test: cAMP signaling in SaOS2/glosensor (SGS-72) cells; format: cell-based; conditions: for Max %: maximum cAMP response relative to PTH(1-34)-2009
T1 construct: endogenous in cells; host or cells: SaOS2-derived SGS-72 cells (human osteoblast line stably transfected with the GloSensor cAMP reporter)
T1 sequence (Q03431 27-593): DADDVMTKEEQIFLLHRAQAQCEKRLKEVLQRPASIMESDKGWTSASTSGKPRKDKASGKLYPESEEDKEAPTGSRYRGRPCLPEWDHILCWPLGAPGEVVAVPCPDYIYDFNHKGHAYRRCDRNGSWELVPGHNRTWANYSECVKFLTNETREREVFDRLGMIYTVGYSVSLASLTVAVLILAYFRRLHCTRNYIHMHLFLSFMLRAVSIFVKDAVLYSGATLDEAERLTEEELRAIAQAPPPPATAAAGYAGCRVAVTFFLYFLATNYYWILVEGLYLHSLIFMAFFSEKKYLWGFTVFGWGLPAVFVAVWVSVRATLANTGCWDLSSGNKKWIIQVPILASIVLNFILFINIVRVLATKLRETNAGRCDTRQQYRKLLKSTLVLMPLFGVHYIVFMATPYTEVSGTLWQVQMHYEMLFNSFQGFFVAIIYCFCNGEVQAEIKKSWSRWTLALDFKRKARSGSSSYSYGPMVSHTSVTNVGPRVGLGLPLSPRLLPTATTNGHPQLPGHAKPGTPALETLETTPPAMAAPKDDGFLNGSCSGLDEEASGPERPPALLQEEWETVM
Description: The cells are derived from the human osteoblast cell line, SaOS2 by stable transfection with a glosensor cAMP reporter.
cAMP signaling was assessed in an SaOS2-derived cell line stably expressing the luciferase-based GloSensor™ cAMP reporter (Hattersley et al., Paper presented at: Novel Signaling Mechanisms and Bone Cell Biology 2014; Binkowski et al., Methods in Molecular Biology 756:263-271, 2011). The cells were seeded into 96-well white plates and were assayed 24 to 48 hours post-confluency. Assays were performed at room temperature in CO2-independent culture media (Life Technologies, Corp., Carlsbad, CA) containing 0.1% BSA (CIDB). […] The time at which maximum luminescence (cps) observed with agonist alone, typically at 10-20 minutes after agonist addition, was used to obtain data from wells containing antagonist with or without agonist, to thus generate antagonist ligand dose-response curves. The resulting cps values were then plotted against ligand concentration using GraphPad Prism 7.0 software and a four-parameter logistics curve fitting equation, which yielded parameters of inhibitory potency (pIC50).

[6] = in vivo; conditions: mouse, sc
Description: as §1

| Compound | duration of increase of blood Ca2+ levels [1] | total area-under-the-curve ([2]; mice, single injection 10 mnol/kg s.c.) [µM·h] | AUC ([2]; mouse, plasma, sc, 10 nmol/kg) [µM·h] | Cmax ([2]; mouse, plasma, sc, 10 nmol/kg) [nM] | Tmax ([2]; mouse, plasma, sc, 10 nmol/kg) [min] | half-life ([2]; mouse, plasma, sc, 10 nmol/kg) [min] | hypophosphatemic effects [3] | total area-under-the-curve [4] [µM·h] | Max % ([5]; means ± SEM) [%] | half-life [6] [min] | AUC ([6]; 10 nmol/kg) [µM·h] | half-life ([6]; 10 nmol/kg) [min] | pEC50 (log molar concentration to attain 50% of maximum response observed with PTH(1-34)-2009) ([5]; SaOS2/glosensor (SGS-72) cells, means ± SEM, n = 5) | EC50 ([5]; SaOS2/glosensor (SGS-72) cells, read-out: EC50, concentration in nM shown below pEC50 (converted)) [nM] |
| --- | --- | --- | --- | --- | --- | --- | --- | --- | --- | --- | --- | --- | --- | --- |
| CCCCCCCCCCCCCCCC(=O)NCCCC[C@H](NC(=O)[C@H](CCC(=O)O)NC(=O)[C@H](Cc1ccc(O)cc1)NC(=O)[C@H](CCC(=O)O)NC(=O)COCCOCCNC(=O)[C@H](Cc1ccccc1)NC(=O)[C@H](CC(N)=O)NC(=O)[C@H](Cc1c[nH]cn1)NC(=O)[C@@H](NC(=O)[C@H](CC(=O)O)NC(=O)[C@H](CCC(N)=O)NC(=O)[C@H](CC(C)C)NC(=O)[C@H](CCCCN)NC(=O)[C@H](CCCCN)NC(=O)[C@H](CCCNC(=N)N)NC(=O)[C@H](CC(C)C)NC(=O)[C@H](Cc1c[nH]c2ccccc12)NC(=O)[C@H](CCC(=O)O)NC(=O)[C@@H](NC(=O)[C@H](CCCNC(=N)N)NC(=O)[C@H](CCC(=O)O)NC(=O)[C@H](CCSC)NC(=O)[C@H](CO)NC(=O)[C@H](CC(N)=O)NC(=O)[C@H](CC(C)C)NC(=O)[C@H](Cc1c[nH]cn1)NC(=O)[C@H](CCCCN)NC(=O)CNC(=O)[C@H](CC(C)C)NC(=O)[C@H](CC(N)=O)NC(=O)[C@H](Cc1c[nH]cn1)NC(=O)[C@H](CCSC)NC(=O)[C@H](CC(C)C)NC(=O)[C@H](CCC(N)=O)NC(=O)[C@@H](NC(=O)[C@H](CCC(=O)O)NC(=O)[C@H](CO)NC(=O)[C@@H](NC(=O)[C@@H](N)CO)C(C)C)[C@@H](C)CC)C(C)C)C(C)C)C(=O)N[C@@H](CCC(=O)O)C(=O)N[C@@H](Cc1ccc(O)cc1)C(=O)N[C@@H](CCC(=O)O)C(N)=O [Palm-PTH(1-34)-2027, Palm-PTH(1-34)] | at least 24 hours | 0.116 | 0.116 | 28.1 | 60 | 114 | prolonged hypophosphatemic effects | – | – | – | – | – | – | – |
| CC[C@H](C)[C@H](NC(=O)[C@H](CCC(=O)O)NC(=O)[C@H](CO)NC(=O)[C@@H](NC(=O)[C@@H](N)CO)C(C)C)C(=O)N[C@@H](CCC(N)=O)C(=O)N[C@@H](CC(C)C)C(=O)N[C@@H](CCSC)C(=O)N[C@@H](Cc1cnc[nH]1)C(=O)N[C@@H](CC(N)=O)C(=O)N[C@@H](CC(C)C)C(=O)NCC(=O)N[C@@H](CCCCN)C(=O)N[C@@H](Cc1cnc[nH]1)C(=O)N[C@@H](CC(C)C)C(=O)N[C@@H](CC(N)=O)C(=O)N[C@@H](CO)C(=O)N[C@@H](CCSC)C(=O)N[C@@H](CCC(=O)O)C(=O)N[C@@H](CCCNC(=N)N)C(=O)N[C@H](C(=O)N[C@@H](CCC(=O)O)C(=O)N[C@@H](Cc1c[nH]c2ccccc12)C(=O)N[C@@H](CC(C)C)C(=O)N[C@@H](CCCNC(=N)N)C(=O)N[C@@H](CCCCN)C(=O)N[C@@H](CCCCN)C(=O)N[C@@H](CC(C)C)C(=O)N[C@@H](CCC(N)=O)C(=O)N[C@@H](CC(=O)O)C(=O)N[C@H](C(=O)N[C@@H](Cc1cnc[nH]1)C(=O)N[C@@H](CC(N)=O)C(=O)N[C@@H](Cc1ccccc1)C(N)=O)C(C)C)C(C)C [PTH(1-34)-2009, PTH(1-34)] | ≤ 4 h | – | – | 0.65 | – | – | – | 0.00043 | 100 ± 0 | 12 | 0.00043 | 12 | – | – |
| W1-Palm-PTH(1-34) (WVSEIQLMHNLGKHLNSMERVEWLRKKLQDVHNF[PEG2′]EYE-{K(Palm)-Glu-Tyr-Glu-NH2}) [Trp1-Palm-PTH(1-34)-2029] | – | – | – | – | – | – | – | – | 77 ± 8 | – | – | – | 8.72 ± 0.15 | 1.91 |
